Earlier results on one molecule are cited in patent US20100297232A1, “ONDANSETRON FILM COMPOSITIONS” (MonoSol Rx, LLC, priority 2009, published 2010).

Like-named read-outs stand apart in the source and are kept apart here.

On to `Cc1nccn1CC1CCc2c(c3ccccc3n2C)C1=O` (centres unmarked) [ondansetron base, ondansetron], for which the solubility entry (pH 1.2 and below) is “soluble”; the solubility entry (pH 8) is recorded as “practically insoluble”.
